From PubChem BioAssay (NCI)
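Following 48 hours of exposure in 96-well plates, responses at five concentrations were used to interpolate endpoints linearly. TGI marks complete inhibition of growth.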

How the values were obtained:
Experiment in all cases: growth of human tumour cells (NCI), 48 h
[1] = system: HCC-2998 colon
[2] = system: MOLT-4 leukemia
[3] = system: SF-268 CNS
[4] = system: SF-539 CNS
[5] = system: SR leukemia
[6] = system: U251 CNS
[7] = system: UACC-257 melanoma
[8] = system: 786-0 renal
[9] = system: HOP-92 NSCLC

Compound	TGI [1]	TGI [2]	TGI [3]	TGI [4]	TGI [5]	TGI [6]	TGI [7]	TGI [8]	TGI [9]
COc1ccc(/C(C=O)=C(\Cl)c2ccc(OC)c(OC)c2)cc1	> 100 µM	> 100 µM	> 100 µM	> 100 µM	31.7 µM	> 100 µM	> 100 µM		
Cc1cccc2c1nc1n2C(=O)c2ccccc2-1	> 100 µM	> 100 µM	> 100 µM	> 100 µM	> 100 µM	> 100 µM	> 100 µM	> 100 µM	> 100 µM
CCOC(=O)CNC(=O)c1[nH]cnc1/N=N/N(C)C	> 100 µM	> 100 µM	> 100 µM	> 100 µM	> 100 µM	> 100 µM	> 100 µM	> 100 µM	
CCCCCCCCCCCCOCC(COP(=O)(O)OCCN=[N+]=[N-])OC(=O)CCCCCCCCCCC (stereo not given)	> 100 µM	> 100 µM	> 100 µM	> 100 µM		> 100 µM		> 100 µM	> 100 µM
CCOC(=O)C(Cc1ccc(N=NN(C)C)cc1)NC(=O)CC1c2ccccc2-c2ccccc21 (stereo not given)	> 100 µM	> 100 µM	> 100 µM	> 100 µM	> 100 µM	> 100 µM	> 100 µM	> 100 µM	
CCOC(=O)C1C(c2ccc(Br)cc2)N(Cc2ccccc2)C(c2ccc(Br)cc2)C(C(=O)OC)S1(=O)=O (stereo not given)	> 100 µM	> 100 µM	> 100 µM		> 100 µM		> 100 µM	> 100 µM	
COC(=O)Nc1cc(OCCCOC(C)=O)c2[nH]c(C(=O)OC)cc2c1C[C@H](O)CO	> 100 µM	> 100 µM		> 100 µM	> 100 µM	> 100 µM	> 100 µM	> 100 µM	> 100 µM
O=c1c2[nH]cnc2n(-c2ccccc2)c(=S)n1-c1ccccc1	> 100 µM	> 100 µM	> 100 µM	> 100 µM	> 100 µM	> 100 µM	> 100 µM	> 100 µM	
CC(C)(C)OC(=O)N[C@H]1CC(=O)c2ccccc2N(CC(=O)O)C1=O	> 100 µM	> 100 µM	> 100 µM	> 100 µM			> 100 µM	> 100 µM	> 100 µM
COc1ccc(O[C@H](CO)C[C@@H]2COC(C)(C)O2)cc1	> 100 µM	> 100 µM	> 100 µM	> 100 µM	> 100 µM	> 100 µM	> 100 µM	> 100 µM	
CN1CCCc2nc3ccccc3n2C1		> 100 µM	> 100 µM	> 100 µM		> 100 µM	> 100 µM	> 100 µM	> 100 µM
Cc1cc(-c2ccc(N=Nc3ccc4c(S(=O)(=O)O)cc(S(=O)(=O)O)c(N)c4c3O)c(C)c2)ccc1N=Nc1ccc2c(S(=O)(=O)O)cc(S(=O)(=O)O)c(N)c2c1O	> 100 µM	> 100 µM	> 100 µM	> 100 µM		> 100 µM	> 100 µM		> 100 µM
CC1CC(c2ccccc2)=Nc2ccccc2S1 (stereo not given)	> 100 µM	> 100 µM	> 100 µM	> 100 µM	> 100 µM	> 100 µM	> 100 µM		> 100 µM
COCOC1CCCC[C@@]1(OCCOCCO[C@@]1(c2ccccc2)CCCC[C@H]1OCOC)c1ccccc1 (stereo not given in full)	> 100 µM		> 100 µM		> 100 µM	> 100 µM	> 100 µM	> 100 µM	
CC(C)C(NCc1c2ccccc2[n+](C)c2ccccc12)C(=O)O (stereo not given)	29.3 µM	7.86 µM	10.9 µM	14.3 µM		18 µM	19.5 µM	15.6 µM	12.5 µM
CC(C)(NO)/C(=N\O)c1ccccc1	> 10 µM	> 10 µM	> 10 µM		> 10 µM	> 10 µM	> 10 µM	> 10 µM	> 10 µM
CN1C(c2ccccc2)CC(O)CC1c1ccccc1 (stereo not given)		> 100 µM	> 100 µM	> 100 µM	> 100 µM	> 100 µM	> 100 µM	> 100 µM	> 100 µM
CC(=O)c1c(-c2ccc(Cl)cc2)c(C#N)c(=S)n(C2OC(CO)C(O)C(O)C2O)c1C (stereo not given)	> 100 µM	52.8 µM	> 100 µM	> 100 µM	87.6 µM	> 100 µM	> 100 µM	> 100 µM	65.6 µM
COc1c(OC2OC(CO)C(O)C(O)C2O)cc2c(c1OC)-c1ccc(OC)c(=O)cc1C(NC(C)=O)CC2 (stereo not given)	> 100 µM	> 100 µM	> 100 µM	> 100 µM	> 100 µM	> 100 µM	> 100 µM	> 100 µM	> 100 µM
C/C(CCN(C)C)=N/O	25.2 µM	4.82 µM	2.49 µM	1.89 µM	5.67 µM	14.6 µM	33.2 µM	13.2 µM	25.5 µM
